Data from ChEMBL document CHEMBL5055643, “Sophoraflavanone G Resensitizes ABCG2-Overexpressing Multidrug-Resistant Non-Small-Cell Lung Cancer Cells to Chemotherapeutic Drugs” (J Nat Prod, 2021).
Active and inactive are the calls of the source. The calls are words filed in the database; no cut-off is given here.

How the values were obtained:
HEK293 [1] = test: Chemo-sensitizing activity against ABCG2-overexpressing human HEK293/482R cells assessed as reversal fold at 1 uM measured after 72 hrs in presence of SN-38 by CCK8 assay relative to control; assay type: functional
NCI-H460 [2] = test: Cytotoxicity against human NCI-H460 cells assessed as reduction in cell viability measured after 72 hrs by CCK8 assay; assay type: cell-based; details: NCI-H460, 72 h
ABCG2 = target: T1, ABCG2 (Homo sapiens, UniProt Q9UNQ0); test: Inhibition of ABCG2 in becatecarin-selected ABCG2-overexpressing human A549/Bec150 cells assessed as increase in intracellular mitoxantrone accumulation at 20 uM incubated for 1 hr in presence of mitoxantrone by flow cytometry; assay type: cell-based; details: probe mitoxantrone
T1 sequence (Q9UNQ0 whole entry): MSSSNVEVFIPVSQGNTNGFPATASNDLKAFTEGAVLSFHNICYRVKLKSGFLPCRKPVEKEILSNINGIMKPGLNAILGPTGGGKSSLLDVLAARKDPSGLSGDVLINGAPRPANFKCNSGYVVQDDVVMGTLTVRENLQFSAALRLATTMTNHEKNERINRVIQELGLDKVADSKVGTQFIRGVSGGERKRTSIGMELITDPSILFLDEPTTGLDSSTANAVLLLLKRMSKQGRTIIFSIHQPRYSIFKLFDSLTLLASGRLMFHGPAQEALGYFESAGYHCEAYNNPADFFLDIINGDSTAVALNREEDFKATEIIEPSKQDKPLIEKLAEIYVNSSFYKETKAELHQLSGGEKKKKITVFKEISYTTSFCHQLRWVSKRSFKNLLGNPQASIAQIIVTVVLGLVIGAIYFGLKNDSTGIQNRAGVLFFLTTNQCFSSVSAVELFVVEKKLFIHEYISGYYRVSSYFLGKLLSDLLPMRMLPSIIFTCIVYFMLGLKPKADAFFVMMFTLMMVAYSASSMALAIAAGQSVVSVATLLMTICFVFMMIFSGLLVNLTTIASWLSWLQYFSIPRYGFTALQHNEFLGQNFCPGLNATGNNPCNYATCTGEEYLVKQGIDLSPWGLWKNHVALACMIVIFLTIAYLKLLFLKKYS

NCI-H460 [3] = test: Chemo-sensitizing activity against mitoxantrone-selected ABCG2-overexpressing human NCI-H460/MX20 cells assessed as reversal fold at 1 uM measured after 72 hrs in presence of SN-38 by CCK8 assay relative to control; assay type: functional
A549 [4] = test: Chemo-sensitizing activity against human A549 cells assessed as reversal fold at 2 uM measured after 72 hrs in presence of topotecan by CCK8 assay relative to control; assay type: functional
HEK293 [5] = test: Chemo-sensitizing activity against ABCB1-overexpressing human HEK293/MDR19 cells assessed as reversal fold at 2 uM measured after 72 hrs in presence of colchicine by CCK8 assay relative to control; assay type: functional
HEK293 [6] = test: Chemo-sensitizing activity against human HEK293 cells assessed as reversal fold at 5 uM measured after 72 hrs in presence of topotecan by CCK8 assay relative to control; assay type: functional
HEK293 [7] = test: Chemo-sensitizing activity against human HEK293 cells assessed as reversal fold at 1 uM measured after 72 hrs in presence of SN-38 by CCK8 assay relative to control; assay type: functional
NCI-H460 [8] = test: Chemo-sensitizing activity against human NCI-H460 cells assessed as reversal fold at 2 uM measured after 72 hrs in presence of SN-38 by CCK8 assay relative to control; assay type: functional
HEK293 [9] = test: Chemo-sensitizing activity against ABCG2-overexpressing human HEK293 cells assessed as reversal fold at 5 uM measured after 72 hrs in presence of topotecan by CCK8 assay relative to control; assay type: functional
HEK293 [10] = test: Chemo-sensitizing activity against human HEK293 cells assessed as reversal fold at 5 uM measured after 72 hrs in presence of SN-38 by CCK8 assay relative to control; assay type: functional
NCI-H460 [11] = test: Cytotoxicity against mitoxantrone-selected ABCG2-overexpressing human NCI-H460/MX20 cells assessed as reduction in cell viability measured after 72 hrs by CCK8 assay; assay type: ADME, cell-based; details: NCI-H460, 72 h
A549 [12] = test: Chemo-sensitizing activity against human A549 cells assessed as reversal fold at 5 uM measured after 72 hrs in presence of topotecan by CCK8 assay relative to control; assay type: functional
HEK293 [13] = test: Chemo-sensitizing activity against human HEK293 cells assessed as reversal fold at 2 uM measured after 72 hrs in presence of topotecan by CCK8 assay relative to control; assay type: functional
A549 [14] = test: Effect on ABCG2 protein expression in becatecarin-selected ABCG2-overexpressing human A549/Bec150 cells at 1 to 5 uM incubated for 72 hrs by immunoblot analysis; assay type: functional, cell-based; details: dose 1-5 µM
KB 3-1 = test: Chemo-sensitizing activity against human KB 3-1 cells assessed as reversal fold at 5 uM measured after 72 hrs in presence of paclitaxel by CCK8 assay relative to control; assay type: functional
HEK293 [15] = test: Cytotoxicity against human HEK293 cells assessed as reduction in cell viability measured after 72 hrs by CCK8 assay; assay type: cell-based; details: HEK293, 72 h
OVCAR-8 [16] = test: Chemo-sensitizing activity against human OVCAR-8 cells assessed as reversal fold at 1 uM measured after 72 hrs in presence of vincristine by CCK8 assay relative to control; assay type: functional
NCI/ADR-RES = test: Chemo-sensitizing activity against ABCB1-overexpressing human NCI/ADR-RES cells assessed as reversal fold at 2 uM measured after 72 hrs in presence of colchicine by CCK8 assay relative to control; assay type: functional
NCI-H460 [17] = test: Chemo-sensitizing activity against mitoxantrone-selected ABCG2-overexpressing human NCI-H460/MX20 cells assessed as reversal fold at 5 uM measured after 72 hrs in presence of SN-38 by CCK8 assay relative to control; assay type: functional
A549 [18] = test: Chemo-sensitizing activity against becatecarin-selected ABCG2-overexpressing human A549/Bec150 cells assessed as reversal fold at 2 uM measured after 72 hrs in presence of SN-38 by CCK8 assay relative to control; assay type: functional
[19] = Cytotoxicity against mitoxantrone-selected ABCG2-overexpressing human NCI-H460/MX20 cells assessed as cell viability at 1 to 5 uM measured after 72 hrs by CCK8 assay; assay type: ADME, cell-based; details: dose 1-5 µM, read-out: Activity
HEK293 [20] = test: Chemo-sensitizing activity against human HEK293 cells assessed as reversal fold at 5 uM measured after 72 hrs in presence of mitoxatrone by CCK8 assay relative to control; assay type: functional
NCI-H460 [21] = test: Chemo-sensitizing activity against human NCI-H460 cells assessed as reversal fold at 1 uM measured after 72 hrs in presence of topotecan by CCK8 assay relative to control; assay type: functional
A549 [22] = test: Chemo-sensitizing activity against human A549 cells assessed as reversal fold at 1 uM measured after 72 hrs in presence of mitoxantrone by CCK8 assay relative to control; assay type: functional
OVCAR-8 [23] = test: Chemo-sensitizing activity against human OVCAR-8 cells assessed as reversal fold at 5 uM measured after 72 hrs in presence of paclitaxel by CCK8 assay relative to control; assay type: functional
HEK293 [24] = test: Chemo-sensitizing activity against human HEK293 cells assessed as reversal fold at 1 uM measured after 72 hrs in presence of colchicine by CCK8 assay relative to control; assay type: functional

## C=C(C)[C@H](CC=C(C)C)Cc1c(O)cc(O)c2c1O[C@H](c1ccc(O)cc1O)CC2=O [SOPHORAFLAVANONE G]
HEK293 [1]
  fold change (FC): 2.1
NCI-H460 [2]
  IC50: 29.3 µM
ABCG2
  inhibition at 1 h, 20 µM: 100%
NCI-H460 [3]
  fold change (FC): 2.6
A549 [4]
  fold change (FC): 1.2
HEK293 [5]
  fold change (FC): 0.8
HEK293 [6]
  fold change (FC): 0.8
HEK293 [7]
  fold change (FC): 1
NCI-H460 [8]
  fold change (FC): 1.7
HEK293 [9]
  fold change (FC): 5
HEK293 [10]
  fold change (FC): 1
NCI-H460 [11]
  IC50: 22.1 µM
A549 [12]
  fold change (FC): 1.4
HEK293 [13]
  fold change (FC): 0.9
A549 [14]
  Activity: inactive
KB 3-1
  fold change (FC): 1.1
HEK293 [15]
  IC50: 35.1 µM
OVCAR-8 [16]
  fold change (FC): 1
NCI/ADR-RES
  fold change (FC): 0.8
NCI-H460 [17]
  fold change (FC): 10.1
A549 [18]
  fold change (FC): 2.7
[19]
  viability at 72 h, 5 µM: > 90%
HEK293 [20]
  fold change (FC): 1.1
NCI-H460 [21]
  fold change (FC): 1.6
A549 [22]
  fold change (FC): 1.2
OVCAR-8 [23]
  fold change (FC): 1.1
HEK293 [24]
  fold change (FC): 1
